In patent publication US8735360B2 (priority 2009, dated 2014):
Positions of bridges follow the written chain, without caps; N, C: chain ends. Residues, ends and D or L forms follow the SMILES beside them.

What was measured:
[1] = molecular target: T1, GC-C (Homo sapiens, UniProt P25092); assay type: cell-based; conditions: for Ratio EC50 pH 8/EC50 pH 5: cGMP response in T84 cells; for pH sensitivity with regard to binding and/or activation of GC-C: pH 5 versus pH 8
[2] = molecular target: T1, GC-C; assay type: binding
[3] = tested on: female CD-1 mice; assay type: in vivo; conditions: oral gavage, % distance travelled by charcoal front in small intestine
[4] = tested on: ligated duodenal loops in rats; assay type: in vivo, rat; conditions: 2.5 μg of peptide per loop

T1 sequence (P25092 24-1073 limits assumed): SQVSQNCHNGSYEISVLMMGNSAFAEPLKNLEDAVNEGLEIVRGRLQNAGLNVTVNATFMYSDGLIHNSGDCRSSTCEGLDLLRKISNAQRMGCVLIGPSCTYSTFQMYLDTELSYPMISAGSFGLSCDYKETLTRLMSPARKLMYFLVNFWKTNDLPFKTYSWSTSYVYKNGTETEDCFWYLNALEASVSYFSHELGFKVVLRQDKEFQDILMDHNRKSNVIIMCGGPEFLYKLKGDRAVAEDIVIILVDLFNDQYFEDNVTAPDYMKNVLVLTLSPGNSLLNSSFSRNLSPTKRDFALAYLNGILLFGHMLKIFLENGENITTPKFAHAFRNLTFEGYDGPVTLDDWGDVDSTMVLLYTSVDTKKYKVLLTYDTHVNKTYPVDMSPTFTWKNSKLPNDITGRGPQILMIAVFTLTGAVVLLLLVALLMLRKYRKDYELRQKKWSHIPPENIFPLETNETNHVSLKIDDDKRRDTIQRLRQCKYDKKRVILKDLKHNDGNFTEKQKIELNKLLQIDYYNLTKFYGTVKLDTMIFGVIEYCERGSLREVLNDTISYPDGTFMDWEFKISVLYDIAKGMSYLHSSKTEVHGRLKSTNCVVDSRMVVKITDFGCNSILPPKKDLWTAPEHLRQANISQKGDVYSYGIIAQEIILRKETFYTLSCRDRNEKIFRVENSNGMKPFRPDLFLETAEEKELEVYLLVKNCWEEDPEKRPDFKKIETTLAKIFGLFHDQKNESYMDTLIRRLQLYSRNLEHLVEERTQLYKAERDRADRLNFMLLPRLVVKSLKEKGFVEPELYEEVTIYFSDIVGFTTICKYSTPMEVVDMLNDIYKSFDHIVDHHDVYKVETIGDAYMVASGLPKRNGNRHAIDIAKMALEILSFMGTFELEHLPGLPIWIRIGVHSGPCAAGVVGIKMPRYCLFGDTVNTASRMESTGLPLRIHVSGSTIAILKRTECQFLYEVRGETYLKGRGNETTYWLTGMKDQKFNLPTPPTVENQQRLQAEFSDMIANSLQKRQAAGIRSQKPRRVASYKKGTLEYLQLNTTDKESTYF

Compound | Ratio EC50 pH 8/EC50 pH 5 [1] | Ratio Ki pH 8/Ki pH 5 [2] | pH sensitivity with regard to binding and/or activation of GC-C [1] | ED50 in the gastrointestinal transit assay [3] [µg/kg] | Rate of HCO3- accumulation [4] [neq/min/cm] | Rate of fluid accumulation [4] [µL/min/cm]
C[C@@H]1NC(=O)[C@@H]2CCCN2C(=O)[C@H](CC(N)=O)NC(=O)[C@@H]2CSSC[C@H](NC(=O)[C@H](CC(=O)O)NC(=O)[C@H](CC(=O)O)NC(=O)[C@@H](N)CC(N)=O)C(=O)N[C@H]3CSSC[C@H](NC1=O)C(=O)N[C@@H]([C@@H](C)O)C(=O)NCC(=O)N[C@H](C(=O)N[C@@H](Cc1ccc(O)cc1)C(=O)O)CSSC[C@H](NC(=O)[C@H](Cc1ccc(O)cc1)NC(=O)[C@H](CCC(=O)O)NC3=O)C(=O)N2 [Peptide 3, NDDCCEYCCNPACTGCY] (H-NDDCCEYCCNPACTGCY-OH; disulfide 4-9, 5-13, 8-16 (inferred); N-terminus and C-terminus assumed) | 25.3 | 17.5 | – | – | – | –
CC(C)C[C@@H]1NC(=O)[C@H](CCC(=O)O)NC(=O)[C@@H]2CSSC[C@@H]3NC(=O)[C@H](C)NC(=O)[C@@H]4CCCN4C(=O)[C@H](CC(N)=O)NC(=O)[C@H](CSSC[C@H](NC(=O)[C@H](CC(=O)O)NC(=O)[C@H](CC(=O)O)NC(=O)CN)C(=O)N2)NC(=O)[C@H](CSSC[C@@H](C(=O)N[C@@H](Cc2ccc(O)cc2)C(=O)O)NC(=O)CNC(=O)[C@H]([C@@H](C)O)NC3=O)NC1=O [Peptide 19, GDDCCELCCNPACTGCY] (H-GDDCCELCCNPACTGCY-OH; disulfide 4-9, 5-13, 8-16 (inferred); N-terminus and C-terminus assumed) | 61.5 | – | – | – | – | –
C[C@@H]1NC(=O)[C@@H]2CCCN2C(=O)[C@H](CC(N)=O)NC(=O)[C@@H]2CSSC[C@H](N)C(=O)N[C@H]3CSSC[C@H](NC1=O)C(=O)N[C@@H]([C@@H](C)O)C(=O)NCC(=O)N[C@H](C(=O)N[C@@H](Cc1ccc(O)cc1)C(=O)O)CSSC[C@H](NC(=O)[C@H](Cc1ccccc1)NC(=O)[C@H](CCC(=O)O)NC3=O)C(=O)N2 [Peptide 2, CCEFCCNPACTGCY] (H-CCEFCCNPACTGCY-OH; disulfide 1-6, 2-10, 5-13) | 13.2 | 0.97 | little or no pH sensitivity | 2.06 | 80 | 2.0
CC(C)C[C@@H]1NC(=O)[C@H](CCC(=O)O)NC(=O)[C@@H]2CSSC[C@@H]3NC(=O)[C@H](C)NC(=O)[C@@H]4CCCN4C(=O)[C@H](CC(N)=O)NC(=O)[C@H](CSSC[C@H](NC(=O)[C@H](CC(=O)O)NC(=O)[C@H](CC(=O)O)NC(=O)[C@@H](N)CC(=O)O)C(=O)N2)NC(=O)[C@H](CSSC[C@@H](C(=O)N[C@@H](Cc2ccc(O)cc2)C(=O)O)NC(=O)CNC(=O)[C@H]([C@@H](C)O)NC3=O)NC1=O [Peptide 17, DDDCCELCCNPACTGCY] | 386.2 | 6.35 | – | 2.9 | – | 1.8
CC(C)C[C@@H]1NC(=O)[C@H](CCC(=O)O)NC(=O)[C@@H]2CSSC[C@@H]3NC(=O)[C@H](C)NC(=O)[C@@H]4CCCN4C(=O)[C@H](CC(N)=O)NC(=O)[C@H](CSSC[C@H](N)C(=O)N2)NC(=O)[C@H](CSSC[C@@H](C(=O)N[C@@H](Cc2ccc(O)cc2)C(=O)O)NC(=O)CNC(=O)[C@H]([C@@H](C)O)NC3=O)NC1=O [Peptide 1, CCELCCNPACTGCY] (H-CCELCCNPACTGCY-OH; disulfide 1-6, 2-10, 5-13 (inferred); N-terminus and C-terminus assumed) | 8.5 | 0.69 | little or no pH sensitivity | 0.43 | 80 | 2.0
CC(C)C[C@@H]1NC(=O)[C@H](CCC(=O)O)NC(=O)[C@@H]2CSSC[C@@H]3NC(=O)[C@H](C)NC(=O)[C@@H]4CCCN4C(=O)[C@H](CC(N)=O)NC(=O)[C@H](CSSC[C@H](NC(=O)[C@H](CC(=O)O)NC(=O)[C@H](CC(=O)O)NC(=O)[C@@H](N)CC(=O)O)C(=O)N2)NC(=O)[C@H](CSSC[C@@H](C(=O)O)NC(=O)CNC(=O)[C@H]([C@@H](C)O)NC3=O)NC1=O [Peptide 20, DDDCCELCCNPACTGC] (H-DDDCCELCCNPACTGC-OH; disulfide 4-9, 5-13, 8-16 (inferred); N-terminus and C-terminus assumed) | 90 | 3.6 | – | – | – | –
CC(C)C[C@@H]1NC(=O)[C@H](CCC(=O)O)NC(=O)[C@@H]2CSSC[C@@H]3NC(=O)[C@H](C)NC(=O)[C@@H]4CCCN4C(=O)[C@H](CC(N)=O)NC(=O)[C@H](CSSC[C@H](NC(=O)[C@H](CC(=O)O)NC(=O)[C@H](CC(=O)O)NC(=O)[C@@H]4CCCN4)C(=O)N2)NC(=O)[C@H](CSSC[C@@H](C(=O)N[C@@H](Cc2ccc(O)cc2)C(=O)O)NC(=O)CNC(=O)[C@H]([C@@H](C)O)NC3=O)NC1=O [Peptide 18, PDDCCELCCNPACTGCY] (H-PDDCCELCCNPACTGCY-OH; disulfide 4-9, 5-13, 8-16 (inferred); N-terminus and C-terminus assumed) | 205.2 | – | – | – | – | –
CC(C)C[C@@H]1NC(=O)[C@H](CCC(=O)O)NC(=O)[C@@H]2CSSC[C@@H]3NC(=O)[C@H](C)NC(=O)[C@@H]4CCCN4C(=O)[C@H](CC(N)=O)NC(=O)[C@H](CSSC[C@H](NC(=O)[C@H](CC(=O)O)NC(=O)[C@@H](N)CC(=O)O)C(=O)N2)NC(=O)[C@H](CSSC[C@@H](C(=O)N[C@@H](Cc2ccc(O)cc2)C(=O)O)NC(=O)CNC(=O)[C@H]([C@@H](C)O)NC3=O)NC1=O [Peptide 16, DDCCELCCNPACTGCY] (H-DDCCELCCNPACTGCY-OH; disulfide 3-8, 4-12, 7-15 (inferred); N-terminus and C-terminus assumed) | 26.9 | – | – | – | – | –
C[C@H](N)C(=O)N[C@@H](CC(=O)O)C(=O)N[C@@H](CC(=O)O)C(=O)N[C@H]1CSSC[C@@H]2NC(=O)[C@@H]3CSSC[C@@H](C(=O)N[C@@H](Cc4ccc(O)cc4)C(=O)O)NC(=O)CNC(=O)[C@H]([C@@H](C)O)NC(=O)[C@H](CSSC[C@H](NC1=O)C(=O)N[C@@H](CCC(=O)O)C(=O)N[C@@H](Cc1ccc(O)cc1)C(=O)N3)NC(=O)[C@H](C)NC(=O)[C@@H]1CCCN1C(=O)[C@H](CC(N)=O)NC2=O [Peptide 9, ADDCCEYCCNPACTGCY] | 79.8 | 1.29 | – | – | – | –
C[C@@H]1NC(=O)[C@@H]2CCCN2C(=O)[C@H](CC(N)=O)NC(=O)[C@@H]2CSSC[C@H](NC(=O)[C@H](CC(=O)O)NC(=O)[C@H](CC(=O)O)NC(=O)[C@@H](N)CC(=O)O)C(=O)N[C@H]3CSSC[C@H](NC1=O)C(=O)N[C@@H]([C@@H](C)O)C(=O)NCC(=O)N[C@H](C(=O)N[C@@H](Cc1ccc(O)cc1)C(=O)O)CSSC[C@H](NC(=O)[C@H](Cc1ccc(O)cc1)NC(=O)[C@H](CCC(=O)O)NC3=O)C(=O)N2 [Peptide 5, DDDCCEYCCNPACTGCY] | 256 | 5.52 | – | 7.54 | – | –
C[C@@H]1NC(=O)[C@@H]2CCCN2C(=O)[C@H](CC(N)=O)NC(=O)[C@@H]2CSSC[C@H](NC(=O)[C@H](CC(=O)O)NC(=O)[C@H](CC(=O)O)NC(=O)[C@@H]3CCCN3)C(=O)N[C@H]3CSSC[C@H](NC1=O)C(=O)N[C@@H]([C@@H](C)O)C(=O)NCC(=O)N[C@H](C(=O)N[C@@H](Cc1ccc(O)cc1)C(=O)O)CSSC[C@H](NC(=O)[C@H](Cc1ccc(O)cc1)NC(=O)[C@H](CCC(=O)O)NC3=O)C(=O)N2 [Peptide 8, PDDCCEYCCNPACTGCY] (H-PDDCCEYCCNPACTGCY-OH; disulfide 4-9, 5-13, 8-16) | 58.2 | – | – | – | – | –
CC(C)C[C@@H]1NC(=O)[C@H](CCC(=O)O)NC(=O)[C@@H]2CSSC[C@@H]3NC(=O)[C@H](C)NC(=O)[C@@H]4CCCN4C(=O)[C@H](CC(N)=O)NC(=O)[C@H](CSSC[C@H](NC(=O)[C@H](CC(=O)O)NC(=O)[C@H](CC(=O)O)NC(=O)[C@@H](N)CC(N)=O)C(=O)N2)NC(=O)[C@H](CSSC[C@@H](C(=O)N[C@@H](Cc2ccc(O)cc2)C(=O)O)NC(=O)CNC(=O)[C@H]([C@@H](C)O)NC3=O)NC1=O [Peptide 11, NDDCCELCCNPACTGCY] | 2.7 | 6.43 | – | – | – | –
C[C@@H]1NC(=O)[C@@H]2CCCN2C(=O)[C@H](CC(N)=O)NC(=O)[C@@H]2CSSC[C@H](NC(=O)[C@H](CC(=O)O)NC(=O)[C@H](CC(=O)O)NC(=O)CN)C(=O)N[C@H]3CSSC[C@H](NC1=O)C(=O)N[C@@H]([C@@H](C)O)C(=O)NCC(=O)N[C@H](C(=O)N[C@@H](Cc1ccc(O)cc1)C(=O)O)CSSC[C@H](NC(=O)[C@H](Cc1ccc(O)cc1)NC(=O)[C@H](CCC(=O)O)NC3=O)C(=O)N2 [Peptide 7, GDDCCEYCCNPACTGCY] (H-GDDCCEYCCNPACTGCY-OH; disulfide 4-9, 5-13, 8-16 (inferred); N-terminus and C-terminus assumed) | 383 | – | – | – | – | –
CC(C)C[C@@H]1NC(=O)[C@H](CCC(=O)O)NC(=O)[C@@H]2CSSC[C@@H]3NC(=O)[C@H](C)NC(=O)[C@@H]4CCCN4C(=O)[C@H](CC(N)=O)NC(=O)[C@H](CSSC[C@H](NC(=O)[C@H](CC(=O)O)NC(=O)[C@H](CC(=O)O)NC(=O)[C@H](C)N)C(=O)N2)NC(=O)[C@H](CSSC[C@@H](C(=O)N[C@@H](Cc2ccc(O)cc2)C(=O)O)NC(=O)CNC(=O)[C@H]([C@@H](C)O)NC3=O)NC1=O [Peptide 13, ADDCCELCCNPACTGCY] | 62.5 | – | – | – | – | –
